Measurements: US20050032904A1, “Composition and use of allylamine derivatives” (priority 2003, published 2005)

System: cell cycle regulatory proteins in COLO 205 cells
Assay: Western blot of cell cycle regulatory proteins
Format: cell-based, human
Protocol: They were then returned to culture media supplemented with 10% FCS and 0.05% DMSO with or without TB (60 μM), and at various times thereafter, they were harvested for protein extraction and Western blot analysis. Based on the FACS analysis in the COLO 205 cells, 0, 15, 18 and 24 h after release from quiescence represents the G0/G1, S, G2/M and 2nd G0/G1 phase of the cell cycle, respectively. (FIG. 2A). Accordingly, these time points were selected for protein extraction and Western blot analysis to examine the effects of TB on the expression of cell cycle regulatory proteins. In FIG. 6, (A) In the DMSO-treated COLO 205, 10% FCS caused a transit increase in p21/Cip1 protein (upper panel). […] The COLO 205 cells were synchronized with 0.04% FCS for 24 h, and then released into complete medium (10% FCS) containing TB (60 μM) for the indicated time points. COLO 205 cells were also treated with DMSO (0.05%, v/v) as a control group. Protein extracts (100 μg/lane) were separated by SDS-PAGE, probed with specific antibodies, and detected using the NBT/BCIP system. […] (LaBaer J, et. al., Genes & Development 1997;11(7):847-62.).
In contrast, TB induced apoptosis in the HL 60 (p53 null) and Hep 3B (p53 partial deleted). […] To further test this hypothesis, the dose effects of TB on the levels of cell cycle regulatory protein were conducted in four different human cancer cell lines, COLO 205 (p53 wild type), HT 29 (p53 His^273 mutant), Hep 3B (p53 partial deleted) and HL 60 (p53 null). […] The cells were rendered quiescent for 24 h, and then challenged with 10% FCS and treated with various concentrations of TB (60-150 μM) for additional 15 h. Protein extracts (100 μg/lane) were separated by SDS-PAGE, probed with specific antibodies, and detected using the NBT/BCIP system. Membranes were also probed with anti-GAPDH antibody to correct for differences in protein loading.
As previously described (Chen R J, et. al., Toxicology & Applied Pharmacology 2000;169(2):132-41.), the frozen tumor was pulverized in liquid N2, and then mixed with lysis buffer (Tris-HCl 0.5 M, pH 6.8, SDS 0.4%). For cell cultures, the cells were seeded onto 150-mm dishes and grown in RPMI 1640 (for COLO 205, HT 29 and HL 60 cells) or MEM (for Hep 3B) supplemented with 10% FCS. After the cells had grown to subconfluence, they were rendered quiescent. The cells were released from quiescence with culture medium supplemented with 10% FCS. TB in 0.05% DMSO or 0.05% DMSO without TB was added to the cells at various concentrations and the mixture was allowed to incubate for 17 h. Western blot analysis was performed as previously described (Chen R J, et. al., Toxicology & Applied Pharmacology 2000;169(2):132-41; Lee W S, et. al., Circulation Research 1998;82(8):845-51.). Immunodetection was carried by probing with proper dilutions of specific antibodies at room temperature for 2 h. Anti-p21/Cip1, anti-p27/Kip1, anti-p53, anti-GAPDH monoclonal antibodies (Santa Cruz, Inc. CA); anti-cyclin B1, D1, and D3, anti-cdk2 and cdk4, and PCNA monclonal antibodies (Transduction Laboratories, Lexington, Ky.) were used at a concentration of 1:1,000 dilution. Anti-cyclin A and E polyclonal antibodies (Transduction, San Diego, Calif.) were used at a concentration of 1:250 dilution. The secondary antibodies, alkaline phosphatase-coupled anti-mouse or anti-rabbit antibody (Jackson, Westgrove Pa.), was incubated at room temperature for 1 h at a concentration of 1:5,000 or 1:1,000 dilution, respectively. The specific protein complexes were identified by incubating with the colorigenic substrates (nitro blue tetrazolium, NBT, and 5-bromo-4-chloro-3-indolyl-phosphate, BCIP; Sigma Chemical Co., St. Louis, Mo.). In each experiment, membranes were also probed with anti-GAPDH antibody to correct for differences in protein loading.

[1] = TB 60-150 μM, 15 h, dose-dependent

CN(C/C=C/C#CC(C)(C)C)Cc1cccc2ccccc12 [TB, 1-Naphthalenemethanamine, N-(6,6-dimethyl-2-hepten-4-ynyl)-N-methyl-, (E)-] was tested, and the “p53 and p21 electrophoretogram bands” value (60 μM TB alone, 15 h) was “increased in intensity”, the “p21/Cip1 protein level, time effect” value (TB 60 μM after release from quiescence) was “persistent increase” and the “p27/Kip1 protein levels, time effect” value (TB 60 μM, 0-24 h after 10% FCS) was “maintained at high levels”. The “Cyclin A2 and cyclin B levels” value (TB 60 μM, time course) was “also downregulated”, the “level of pRB protein (phosphorylated Rb)” value (TB 60 μM, time course) was “downregulated” and the “levels of cyclin D1 and PCNA protein” value (TB 60 μM, time course) was “not changed”. The “levels of cyclin D3, cdk2 and cdk4 protein” value (TB 60 μM, time course) was “downregulated”, the “levels of cyclin E protein” value (TB 60 μM, time course) was “slightly elevated” and the “levels of cyclin D3 and cdk4, dose effect” value [1] was “decreased”. The “levels of p53, p21/Cip1 and p27/Kip1 protein, dose effect” value [1] was “increased”.
